Measured values reported in ChEMBL document CHEMBL1153282, “N-substituted 2'-(aminoaryl)benzothiazoles as kinase inhibitors: hit identification and scaffold hopping” (Bioorg Med Chem Lett, 2009).

Key:
[1] = target: Proto-oncogene tyrosine-protein kinase Src (Homo sapiens, UniProt P12931); assay: Inhibition of Src by virtual HTS assay
Insulin receptor = Insulin receptor (Homo sapiens, UniProt P06213); assay: Inhibition of insulin receptor by virtual HTS assay
Aurora kinase A = target: T1, Aurora kinase A (Homo sapiens, UniProt O14965); assay: Inhibition of Aurora A by virtual HTS assay
T1 sequence (O14965 whole entry): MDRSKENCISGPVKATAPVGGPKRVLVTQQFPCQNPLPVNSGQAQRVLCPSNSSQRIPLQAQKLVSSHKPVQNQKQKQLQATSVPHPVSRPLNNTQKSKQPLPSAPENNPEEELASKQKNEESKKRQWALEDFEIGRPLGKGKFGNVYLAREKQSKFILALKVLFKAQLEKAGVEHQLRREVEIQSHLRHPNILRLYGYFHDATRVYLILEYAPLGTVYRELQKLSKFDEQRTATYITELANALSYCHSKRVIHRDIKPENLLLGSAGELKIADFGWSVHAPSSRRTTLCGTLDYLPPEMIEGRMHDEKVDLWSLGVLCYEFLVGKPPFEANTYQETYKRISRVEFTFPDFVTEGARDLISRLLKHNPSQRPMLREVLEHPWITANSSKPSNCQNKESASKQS

Aurora kinase B = Aurora kinase B (Homo sapiens, UniProt Q96GD4); assay: Inhibition of Aurora B by virtual HTS assay
[2] = target: Insulin-like growth factor 1 receptor (Homo sapiens, UniProt P08069); assay: Inhibition of IGF1R by virtual HTS assay
[3] = target: Vascular endothelial growth factor receptor 2 (Homo sapiens, UniProt P35968); assay: Inhibition of VEGFR2 by virtual HTS assay
Angiopoietin-1 receptor = Angiopoietin-1 receptor (Homo sapiens, UniProt Q02763); assay: Inhibition of TIE2 by virtual HTS assay
Ephrin type-B receptor 4 = target: T2, Ephrin type-B receptor 4 (Homo sapiens, UniProt P54760); assay: Inhibition of EphB4 by virtual HTS assay
T2 sequence (P54760 whole entry): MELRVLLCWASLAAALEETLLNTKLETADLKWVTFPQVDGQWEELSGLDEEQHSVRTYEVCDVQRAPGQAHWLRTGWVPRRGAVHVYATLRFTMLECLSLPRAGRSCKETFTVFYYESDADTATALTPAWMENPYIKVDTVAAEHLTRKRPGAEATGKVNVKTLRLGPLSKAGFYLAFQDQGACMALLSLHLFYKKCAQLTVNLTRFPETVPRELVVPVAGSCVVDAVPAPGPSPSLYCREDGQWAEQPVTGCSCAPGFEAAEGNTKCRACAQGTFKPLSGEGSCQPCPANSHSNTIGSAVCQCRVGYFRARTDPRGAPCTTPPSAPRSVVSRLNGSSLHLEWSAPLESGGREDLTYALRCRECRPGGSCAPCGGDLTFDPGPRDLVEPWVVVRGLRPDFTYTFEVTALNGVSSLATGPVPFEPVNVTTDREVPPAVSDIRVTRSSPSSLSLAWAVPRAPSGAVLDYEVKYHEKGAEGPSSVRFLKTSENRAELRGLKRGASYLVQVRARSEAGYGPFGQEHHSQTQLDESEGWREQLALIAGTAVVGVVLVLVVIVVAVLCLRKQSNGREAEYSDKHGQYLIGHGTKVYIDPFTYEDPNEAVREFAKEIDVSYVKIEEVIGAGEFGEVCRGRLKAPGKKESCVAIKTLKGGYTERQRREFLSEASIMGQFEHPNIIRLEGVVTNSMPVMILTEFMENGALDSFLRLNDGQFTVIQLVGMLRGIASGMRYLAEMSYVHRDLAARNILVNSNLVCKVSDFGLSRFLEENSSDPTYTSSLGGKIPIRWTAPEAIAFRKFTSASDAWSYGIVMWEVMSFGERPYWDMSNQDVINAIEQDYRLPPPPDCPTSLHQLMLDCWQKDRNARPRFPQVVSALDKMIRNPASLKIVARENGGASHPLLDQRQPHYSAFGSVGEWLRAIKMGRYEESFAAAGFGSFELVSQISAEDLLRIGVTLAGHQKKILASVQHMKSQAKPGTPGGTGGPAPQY

[4] = target: Receptor tyrosine-protein kinase erbB-2 (Homo sapiens, UniProt P04626); assay: Inhibition of ErbB2 by virtual HTS assay
[5] = target: Epidermal growth factor receptor (Homo sapiens, UniProt P00533); assay: Inhibition of EGFR by virtual HTS assay
[6] = target: Vascular endothelial growth factor receptor 3 (Homo sapiens, UniProt P35916)
Description: Inhibition of VEGFR3 by virtual HTS assay

Chain of Insulin-like growth factor 1 receptor (P08069 31-736 limits assumed): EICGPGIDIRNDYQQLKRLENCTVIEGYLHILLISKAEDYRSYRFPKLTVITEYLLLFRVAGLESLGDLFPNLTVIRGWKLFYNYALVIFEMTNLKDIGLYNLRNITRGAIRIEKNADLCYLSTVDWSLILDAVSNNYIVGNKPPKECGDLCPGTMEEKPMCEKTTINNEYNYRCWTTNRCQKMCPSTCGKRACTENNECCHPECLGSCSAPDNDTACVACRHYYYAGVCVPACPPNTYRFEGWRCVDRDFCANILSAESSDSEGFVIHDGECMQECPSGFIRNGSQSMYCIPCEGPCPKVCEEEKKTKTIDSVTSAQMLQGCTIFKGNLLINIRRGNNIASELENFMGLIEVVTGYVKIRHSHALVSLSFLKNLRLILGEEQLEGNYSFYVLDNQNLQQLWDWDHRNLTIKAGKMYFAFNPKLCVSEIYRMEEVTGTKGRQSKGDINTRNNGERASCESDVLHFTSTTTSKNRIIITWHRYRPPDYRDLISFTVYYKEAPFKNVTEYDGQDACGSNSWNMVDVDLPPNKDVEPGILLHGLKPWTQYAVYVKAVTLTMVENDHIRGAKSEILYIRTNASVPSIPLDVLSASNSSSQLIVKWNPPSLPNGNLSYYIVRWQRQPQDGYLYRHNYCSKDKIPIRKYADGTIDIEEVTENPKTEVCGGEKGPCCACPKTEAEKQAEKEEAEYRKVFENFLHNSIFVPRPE
Chain of Insulin-like growth factor 1 receptor (P08069 741-1367 limits assumed): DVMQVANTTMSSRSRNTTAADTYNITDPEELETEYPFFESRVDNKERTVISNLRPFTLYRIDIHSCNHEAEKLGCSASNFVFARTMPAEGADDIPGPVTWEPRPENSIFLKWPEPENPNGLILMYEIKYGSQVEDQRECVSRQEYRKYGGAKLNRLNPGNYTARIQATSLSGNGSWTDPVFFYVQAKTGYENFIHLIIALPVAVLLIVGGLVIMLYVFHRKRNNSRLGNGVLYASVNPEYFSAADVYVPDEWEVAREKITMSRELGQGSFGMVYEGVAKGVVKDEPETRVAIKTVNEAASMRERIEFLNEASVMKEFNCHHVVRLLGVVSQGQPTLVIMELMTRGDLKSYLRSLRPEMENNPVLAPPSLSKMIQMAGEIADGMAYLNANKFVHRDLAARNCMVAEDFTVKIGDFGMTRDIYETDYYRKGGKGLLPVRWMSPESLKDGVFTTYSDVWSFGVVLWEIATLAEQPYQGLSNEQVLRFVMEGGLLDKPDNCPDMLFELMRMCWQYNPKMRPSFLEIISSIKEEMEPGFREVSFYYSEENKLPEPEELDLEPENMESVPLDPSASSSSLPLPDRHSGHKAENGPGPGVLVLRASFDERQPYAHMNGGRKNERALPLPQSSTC
Chain of Vascular endothelial growth factor receptor 2 (P35968 whole entry): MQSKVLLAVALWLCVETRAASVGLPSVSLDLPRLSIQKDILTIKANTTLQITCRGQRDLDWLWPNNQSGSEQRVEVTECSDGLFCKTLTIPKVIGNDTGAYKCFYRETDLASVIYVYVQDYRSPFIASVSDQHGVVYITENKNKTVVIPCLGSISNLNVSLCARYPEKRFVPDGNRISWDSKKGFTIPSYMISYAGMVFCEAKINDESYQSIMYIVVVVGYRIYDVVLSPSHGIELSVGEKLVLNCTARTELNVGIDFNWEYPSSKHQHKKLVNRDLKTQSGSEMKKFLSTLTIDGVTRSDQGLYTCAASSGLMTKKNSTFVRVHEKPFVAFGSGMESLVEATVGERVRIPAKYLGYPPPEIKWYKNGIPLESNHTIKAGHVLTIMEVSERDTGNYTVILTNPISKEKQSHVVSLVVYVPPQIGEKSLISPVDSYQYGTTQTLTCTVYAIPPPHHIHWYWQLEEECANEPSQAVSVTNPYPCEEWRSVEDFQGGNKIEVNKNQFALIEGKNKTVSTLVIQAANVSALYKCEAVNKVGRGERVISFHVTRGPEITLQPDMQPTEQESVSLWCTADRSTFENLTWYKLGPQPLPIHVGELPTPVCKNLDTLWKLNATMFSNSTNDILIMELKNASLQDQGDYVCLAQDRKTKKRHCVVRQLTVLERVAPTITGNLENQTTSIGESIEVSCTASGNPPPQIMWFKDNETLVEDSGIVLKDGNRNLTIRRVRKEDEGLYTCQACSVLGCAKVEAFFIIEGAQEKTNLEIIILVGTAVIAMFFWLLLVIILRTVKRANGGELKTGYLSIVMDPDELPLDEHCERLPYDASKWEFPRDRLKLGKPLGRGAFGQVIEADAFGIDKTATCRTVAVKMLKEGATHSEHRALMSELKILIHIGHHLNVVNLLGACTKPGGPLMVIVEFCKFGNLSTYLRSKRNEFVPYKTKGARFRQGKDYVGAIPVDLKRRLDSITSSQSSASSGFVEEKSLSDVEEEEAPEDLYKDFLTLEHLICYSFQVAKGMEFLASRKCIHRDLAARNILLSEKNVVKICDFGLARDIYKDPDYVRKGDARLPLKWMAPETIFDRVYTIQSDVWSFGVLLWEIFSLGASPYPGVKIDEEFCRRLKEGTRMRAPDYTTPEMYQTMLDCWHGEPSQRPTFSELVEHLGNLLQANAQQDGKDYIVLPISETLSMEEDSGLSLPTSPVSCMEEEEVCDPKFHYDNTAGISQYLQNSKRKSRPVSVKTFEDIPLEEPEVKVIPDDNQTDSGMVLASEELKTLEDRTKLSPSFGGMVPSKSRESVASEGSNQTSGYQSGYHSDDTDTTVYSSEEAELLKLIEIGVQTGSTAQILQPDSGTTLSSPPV
Chain of Aurora kinase B (Q96GD4 whole entry): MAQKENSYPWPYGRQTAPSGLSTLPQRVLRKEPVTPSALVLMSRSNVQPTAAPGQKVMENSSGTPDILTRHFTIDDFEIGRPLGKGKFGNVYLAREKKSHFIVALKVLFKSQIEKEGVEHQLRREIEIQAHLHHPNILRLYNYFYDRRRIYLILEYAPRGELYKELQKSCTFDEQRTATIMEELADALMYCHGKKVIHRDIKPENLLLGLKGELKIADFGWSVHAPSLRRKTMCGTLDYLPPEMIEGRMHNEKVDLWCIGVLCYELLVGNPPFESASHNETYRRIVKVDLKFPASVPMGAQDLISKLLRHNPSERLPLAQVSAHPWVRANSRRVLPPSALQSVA
Chain of Proto-oncogene tyrosine-protein kinase Src (P12931 2-536 limits assumed): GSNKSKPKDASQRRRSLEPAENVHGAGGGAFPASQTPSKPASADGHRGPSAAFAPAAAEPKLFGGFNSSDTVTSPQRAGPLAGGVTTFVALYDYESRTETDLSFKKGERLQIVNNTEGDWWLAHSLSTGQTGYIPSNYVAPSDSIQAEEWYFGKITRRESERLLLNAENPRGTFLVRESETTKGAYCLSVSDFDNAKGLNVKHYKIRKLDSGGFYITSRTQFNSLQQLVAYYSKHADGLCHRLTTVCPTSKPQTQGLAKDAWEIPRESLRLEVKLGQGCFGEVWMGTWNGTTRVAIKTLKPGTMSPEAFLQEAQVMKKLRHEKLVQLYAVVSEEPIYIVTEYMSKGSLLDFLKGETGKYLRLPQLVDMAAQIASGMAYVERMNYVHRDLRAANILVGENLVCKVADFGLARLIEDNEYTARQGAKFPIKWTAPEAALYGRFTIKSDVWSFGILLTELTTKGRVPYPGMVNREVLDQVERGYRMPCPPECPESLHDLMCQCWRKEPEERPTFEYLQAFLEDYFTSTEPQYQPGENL
Chain of Receptor tyrosine-protein kinase erbB-2 (P04626 whole entry): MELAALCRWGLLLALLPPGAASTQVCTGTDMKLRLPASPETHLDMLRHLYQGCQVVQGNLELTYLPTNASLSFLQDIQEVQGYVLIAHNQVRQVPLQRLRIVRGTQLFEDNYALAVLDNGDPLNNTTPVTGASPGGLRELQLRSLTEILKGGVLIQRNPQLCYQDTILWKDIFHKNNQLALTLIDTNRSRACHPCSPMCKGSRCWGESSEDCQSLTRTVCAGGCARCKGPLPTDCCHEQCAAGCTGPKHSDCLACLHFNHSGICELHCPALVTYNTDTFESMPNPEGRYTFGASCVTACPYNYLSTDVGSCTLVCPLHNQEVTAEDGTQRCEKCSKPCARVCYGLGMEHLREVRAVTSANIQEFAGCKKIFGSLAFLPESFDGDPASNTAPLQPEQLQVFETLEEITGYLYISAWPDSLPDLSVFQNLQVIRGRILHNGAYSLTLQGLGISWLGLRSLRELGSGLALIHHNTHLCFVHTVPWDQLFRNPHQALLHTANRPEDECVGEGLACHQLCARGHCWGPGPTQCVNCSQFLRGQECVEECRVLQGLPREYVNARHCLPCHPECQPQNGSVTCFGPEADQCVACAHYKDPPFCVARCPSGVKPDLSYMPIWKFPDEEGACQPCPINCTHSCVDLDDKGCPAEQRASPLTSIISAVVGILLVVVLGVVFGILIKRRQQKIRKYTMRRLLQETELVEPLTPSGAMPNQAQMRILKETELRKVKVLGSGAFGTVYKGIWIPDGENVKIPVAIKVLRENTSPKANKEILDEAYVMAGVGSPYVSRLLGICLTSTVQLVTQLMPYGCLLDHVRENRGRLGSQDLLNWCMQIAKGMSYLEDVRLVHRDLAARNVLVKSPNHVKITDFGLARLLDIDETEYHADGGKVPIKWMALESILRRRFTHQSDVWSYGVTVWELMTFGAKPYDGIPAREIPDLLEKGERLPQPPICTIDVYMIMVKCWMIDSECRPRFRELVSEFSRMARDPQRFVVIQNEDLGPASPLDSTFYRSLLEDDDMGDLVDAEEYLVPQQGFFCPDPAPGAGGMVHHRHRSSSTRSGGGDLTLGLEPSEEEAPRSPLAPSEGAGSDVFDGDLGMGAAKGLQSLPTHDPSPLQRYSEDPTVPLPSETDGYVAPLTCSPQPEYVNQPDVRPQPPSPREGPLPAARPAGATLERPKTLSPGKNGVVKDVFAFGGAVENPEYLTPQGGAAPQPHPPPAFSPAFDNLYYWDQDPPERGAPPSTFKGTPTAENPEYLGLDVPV

IC50 [1] [µM] | IC50 (Insulin receptor) [µM] | IC50 (Aurora kinase A) [µM] | IC50 (Aurora kinase B) [µM] | IC50 [2] [µM] | IC50 [3] [µM] | IC50 (Angiopoietin-1 receptor) [µM] | IC50 (Ephrin type-B receptor 4) [µM] | IC50 [4] [µM] | IC50 [5] [µM] | IC50 [6] [µM] | SMILES
> 10 | > 10 | 2.8 | 0.72 | > 10 | > 10 | > 10 |  | > 10 | > 10 | > 10 | c1ccc2sc(-c3ccc(Nc4ncnc5ccsc45)cc3)nc2c1
> 10 | > 10 | > 10 | > 10 | > 10 | > 10 | > 10 |  | > 10 | > 10 | > 10 | COc1cc(Nc2ncnc3ccsc23)ccc1-c1nc2ccccc2s1
> 10 |  | > 10 | 6.4 | > 10 | > 10 | 1.2 | > 10 |  |  |  | c1cc(Nc2ncnc3[nH]ccc23)cc(-c2nc3ccccc3s2)c1
> 10 | > 10 | 0.35 | 0.135 | > 10 | 6.8 |  | > 10 |  | 1.5 |  | COc1cc2ncnc(Nc3ccc(-c4nc5ccccc5s4)cc3)c2cc1OC
1.5 | 6.95 | 8 | > 10 | 1.5 | 1.2 | 1.9 |  | 3.1 | 1.3 | 2.1 | c1ccc2sc(-c3ccc(Nc4ncnc5[nH]ccc45)cc3)nc2c1
> 10 | > 10 | > 10 | > 10 | > 10 | > 10 | 4.4 |  | > 10 | > 10 | > 10 | Clc1cc(Nc2ncnc3ccsc23)ccc1-c1nc2ccccc2s1
> 10 | > 10 | 4 | 0.29 | > 10 | > 10 | 4.1 |  | > 10 | > 10 | > 10 | Fc1cc(-c2nc3ccccc3s2)ccc1Nc1ncnc2ccsc12
2.1 | > 10 | > 10 | > 10 | 2.9 | 0.96 | 2.5 |  | > 10 | 5.1 | 7.7 | COc1nc(Nc2ccc(-c3nc4ccccc4s3)c(OC)c2)c2cc[nH]c2n1
> 10 | > 10 | 5.8 | > 10 | > 10 | 9.2 | 1.3 |  | > 10 | 2.6 | 3.4 | COc1cc(Nc2ncnc3nc[nH]c23)ccc1-c1nc2ccccc2s1
 | > 10 | 0.32 | 3.1 |  | > 10 |  |  | > 10 | > 10 | > 10 | COc1cc(Nc2nccc(Nc3cc(C)n[nH]3)n2)ccc1-c1nc2ccccc2s1
> 10 | > 10 | > 10 | 4.2 | > 10 | 6.9 |  | > 10 |  | 2.2 |  | COc1cc2ncnc(Nc3ccc(-c4nc5ccccc5s4)c(O)c3)c2cc1OC

Continued, compound first:

SMILES | IC50 [1] [µM] | IC50 (Insulin receptor) [µM] | IC50 (Aurora kinase A) [µM] | IC50 (Aurora kinase B) [µM] | IC50 [2] [µM] | IC50 [3] [µM] | IC50 (Angiopoietin-1 receptor) [µM] | IC50 (Ephrin type-B receptor 4) [µM] | IC50 [4] [µM] | IC50 [5] [µM] | IC50 [6] [µM]
COc1cc2ncnc(Nc3ccc(-c4nc5ccccc5s4)cc3C)c2cc1OC | > 10 | > 10 | 4.4 | 3.7 | > 10 | 3.4 | 0.84 | > 10 |  |  | 
CN(C)c1ccnc(Nc2ccc(-c3nc4ccccc4s3)cc2)n1 |  | > 10 | > 10 | > 10 |  | > 10 |  |  |  | > 10 | 
Fc1cc(-c2nc3ccccc3s2)ccc1Nc1ncnc2cc(Cl)ccc12 | 0.7 | > 10 | > 10 | 0.51 | 1.1 | 0.8 | 1 | 1 |  | > 10 | 
Cc1cc(Nc2ccnc(Nc3ccc(-c4nc5ccccc5s4)cc3)n2)n[nH]1 |  | > 10 | 0.37 | 7 |  | > 10 |  |  |  | > 10 | 
COc1cc(Nc2ncnc3[nH]ccc23)ccc1-c1nc2ccccc2s1 | > 10 | > 10 | > 10 | > 10 | 3.6 | > 10 | 8.6 |  | 1.6 | 0.72 | > 10
COc1cc2nc(Nc3cc(C)n[nH]3)nc(Nc3ccc(-c4nc5ccccc5s4)cc3)c2cc1OC | 3 | 2.15 | 6 | > 10 | 1.65 | > 10 | > 10 | 3.3 |  | > 10 | 
COc1cc2ncnc(Nc3ccc(-c4nc5ccccc5s4)c(OC)c3)c2cc1OC | > 10 | > 10 | > 10 | > 10 | > 10 | > 10 |  | > 10 |  | 0.063 | 
CNc1ccnc(Nc2ccc(-c3nc4ccccc4s3)cc2)n1 |  |  | 1.5 |  |  |  |  |  |  |  | 
CNc1nccc(Nc2ccc(-c3nc4ccccc4s3)cc2)n1 |  | 9.7 | > 10 | > 10 |  | 8.9 |  |  | > 10 | > 10 | 6.9
CN1CCN(c2ccnc(Nc3ccc(-c4nc5ccccc5s4)cc3)n2)CC1 |  | > 10 | 0.84 | > 10 |  | > 10 |  |  | > 10 | > 10 | 5.2
COc1nc(Nc2ccc(-c3nc4ccccc4s3)cc2)c2cc[nH]c2n1 | 6.4 | > 10 | > 10 | > 10 | 4.4 | 10 | 8.7 |  | > 10 |  | > 10
CNc1cc(Nc2ccc(-c3nc4ccccc4s3)cc2)ccn1 |  | > 10 | > 10 | > 10 |  | > 10 |  |  | > 10 | > 10 | 6
Cc1cc(Nc2cc(Nc3ccc(-c4nc5ccccc5s4)cc3)ccn2)[nH]n1 |  | > 10 | 1.3 | 1.8 |  | 8.8 |  |  | > 10 | > 10 | 6.5
CNC(=O)c1cc(Nc2ccc(-c3nc4ccccc4s3)cc2)ccn1 |  | > 10 | > 10 | > 10 |  | 3.6 |  |  | 1.1 | 2 | > 10
c1cc(Nc2ncnc3nc[nH]c23)cc(-c2nc3ccccc3s2)c1 | 1.1 | > 10 | > 10 | > 10 | 1.2 | 0.87 |  | 0.84 |  | 1.7 | 
COc1cc2nc(Nc3cc(C)[nH]n3)nc(Nc3cccc(-c4nc5ccccc5s4)c3)c2cc1OC |  |  | 5.5 | > 10 |  |  | 4.4 |  |  |  | 
c1ccc2sc(-c3ccc(Nc4ncnc5nc[nH]c45)cc3)nc2c1 | > 10 | > 10 | > 10 | > 10 | > 10 | > 10 |  |  |  | 7.8 | 
